Data reported in patent publication US20250195453A1, “NOVEL ANTIBIOTIC WITH QUORUM SENSING INHIBITOR ACTIVITY” (priority 2022, published 2025).

How the values were obtained:
C. violaceum = experiment: Viability assay (resazurin) of C. violaceum in parallel to quorum sensing assay; assay type: cell-based, Chromobacterium violaceum; settings: assays in parallel with the quorum sensing assays
Protocol: To ascertain that reduced OD562 signal is due to inhibition of quorum sensing and not merely due to reduced viability of bacteria, a viability assay may be done in parallel to the quorum sensing assay. To assess viability of bacteria, C. violaceum bacteria are grown o/n at 27° C. in TSB medium. The bacteria are diluted 1000× in TSB medium and grown until OD600=0.5-0.7. The bacteria are resuspended in TSB medium containing compound and incubated at 27° C. for 20 h. Bacteria are collected by centrifugation for 10 min at 3000 rpm. Supernatant is aspirated and resazurin (150 μg/mL in physiological salt solution) is added. Plates are incubated for another 45 min at 27° C. and fluorescence is measured by excitation at 540 nm and emission at 590 nm. If the fluorescent signal is less than 70% of the fluorescent signal of control untreated bacteria, the sample is scored as having an effect on viability of the bacteria.
C. violaceum bacteria were grown o/n in tryptic soy broth at 27° C. The bacteria were diluted in TSB and grown until OD600=0.5-0.7. […] The plates were centrifuged again for 10 min at 3000 rpm and 100 μL of the supernatant containing the violacein was transferred to a new 96-well plate and the violacein production was quantified by measuring the OD562 on an ASYS expert plus microplate reader. […]

pqsA-GFP reporter = experiment: PAO1 quorum sensing reporter assay, pqsA-GFP; assay type: cell-based, Pseudomonas aeruginosa (PAO1); settings: funalenone concentrations up to 500 μM
Protocol: (§1) Quorum sensing activity in PAO1 cells can be assessed by a the person skilled in the art, preferably by a quorum sensing reporter assay as exemplified herein. PAO1 reporters express green fluorescent protein under the control of the lasB promoter, the rhlA promoter, the pqsA promoter or a constitutive promoter, PA1/04/03. Reporter bacteria are inoculated in AB minimal media supplemented with 0.5% glucose and 0.5% casamino acids. Cultures are diluted in physiological salt solution to an OD450=0.1-0.2 before addition to AB medium with a range of concentrations of compound. The GFP fluorescence (excitation 485 nm, emission 535 nm) and absorbance (600 nm) are determined every 15 min for 15 h at 34° C. IC50 values are calculated based on the maximum slope of GFP/OD. If the IC50 on reporter lines is less than half of the IC50 on control bacteria, the compound is scored as quorum sensing inhibitor.
(§2) To test the potential of paecilomycone as quorum sensing inhibitor in more clinically relevant bacteria, the effect on P. aeruginosa (PAO1) was tested. […] To correct for potential effects on bacterial growth, the OD600 was determined in parallel with GFP fluorescence intensity and RFU/OD was plotted.

[1] = system: violacein production in C. violaceum; experiment: Quorum sensing assay: violacein production in C. violaceum; assay type: cell-based, Chromobacterium violaceum; settings: funalenone up to 1 mM
Protocol: C. violaceum bacteria were grown o/n in tryptic soy broth at 27° C. The bacteria were diluted in TSB and grown until OD600=0.5-0.7. Bacteria were diluted 1:1000 and 50 μL bacterial suspension was transferred to 96-well plates containing 50 μL fungal filtrate, extract or purified compound in a range of concentrations. […] Plates were incubated for 20 h at 27° C. while shaking at 180 rpm. Plates were centrifuged for 10 min at 3000 rpm to precipitate the violacein. Supernatant was aspirated and the pellet was resuspended in 200 μL 96% ethanol. The plates were centrifuged again for 10 min at 3000 rpm and 100 μL of the supernatant containing the violacein was transferred to a new 96-well plate and the violacein production was quantified by measuring the OD562 on an ASYS expert plus microplate reader.

lasB-GFP reporter = experiment: PAO1 quorum sensing reporter assay, lasB-GFP; assay type: cell-based, Pseudomonas aeruginosa (PAO1); settings: funalenone concentrations up to 500 μM
Protocol: as §1, §2

WT-GFP = assay type: cell-based, Pseudomonas aeruginosa (PAO1); settings: funalenone concentrations up to 500 μM
Protocol: as §1, §2

rhlA-GFP reporter = experiment: PAO1 quorum sensing reporter assay, rhlA-GFP; assay type: cell-based, Pseudomonas aeruginosa (PAO1); settings: funalenone concentrations up to 500 μM
Protocol: as §1, §2

## COC1=C(O)c2c(O)cc(C)c3c(O)cc(O)c(c23)C1=O [funalenone]
C. violaceum
  Effect on cell viability of C. violaceum: did not affect cell viability
pqsA-GFP reporter
  Effect on quorum sensing, pqsA-GFP reporter: no effects on quorum sensing
[1]
  Inhibition of violacein production: did not inhibit violacein production
lasB-GFP reporter
  Effect on quorum sensing, lasB-GFP reporter: no effects on quorum sensing
WT-GFP
  Effect on control WT-GFP reporter: no effects on quorum sensing
rhlA-GFP reporter
  Effect on quorum sensing, rhlA-GFP reporter: no effects on quorum sensing
